Assay results: patent US12303592B2, “Formulations for parenteral delivery of compounds and uses thereof” (Wyeth, LLC, priority 2006, dated 2025)

Experiments:
[1] = tested on: opioid receptors; settings: found in U.S. Ser. No. 11/441,395 and 11/441,452; cited from earlier work
[2] = for inhibition of formation of 2′,2′ bis methylnaltrexone degradant / inhibition of formation of 7-dihydroxy-methylnaltrexone degradant: in presence of iron, 40° C. and room temperature
Procedure: FIG. 1A and FIG. 1B: Effect of CaEDTA and NaEDTA on the formation of 2′,2-bis methylnaltrexone in the presence of iron at 40° C. (FIG. 1A) and room temperature, […] (FIG. 1B).
FIGS. 2A, 2B, 2C, and 2D: Effect of CaEDTA on the formation of 7-dihydroxy methylnaltrexone in solutions. The effect of CaEDTA and NaEDTA on the formation of 7-dihydroxy methylnaltrexone in the presence of iron at 40° C. (FIG. 2A) and room temperature, 25° (FIG. 2B) was assessed. […] The effect of CaEDTA on the formation of 7-dihydroxy methylnaltrexone in solution following one month storage at room temperature (FIG. 2C) and at 40° C. (FIG. 2D) was assessed. The presence of CaEDTA reduced formation of 7-dihydroxy methylnaltrexone at either temperature.
FIG. 3A and FIG. 3B: Effect of CaEDTA in methylnaltrexone solution on the formation of a methylnaltrexone degradant having an RRT 0.79 (“the 0.79 degradant”). The effect of CaEDTA and NaEDTA on the formation of the 0.79 degradant at room temperature, 25° (FIG. 3A) and at 40° C. (FIG. 3B) was assessed. Calcium EDTA was not effective at inhibiting formation of the 0.79 degradant, and may increase levels of degradant formation.
Inhibition of metal-catalyzed formation of 2,2′bis methylnaltrexone. […] We have found by HPLC analysis (Method B) the 2,2′bis methylnaltrexone degradant results in a peak having an RRT about 1.55. Fe^3+ is an ion that can get into the liquid formulation from several sources. For example, it can be leached from stainless steel process equipment, syringe needles, stoppers and amber vials. EDTA, as a metal chelating agent sequesters the available Fe^3+ in the solution, thereby preventing catalysis of the undesirable metal-catalyzed reactions. Methylnaltrexone solutions were prepared in 0.9% NaCl, in the presence of iron and various concentrations of sodium EDTA and calcium EDTA. Used throughout the experiments sodium EDTA is EDTA disodium dihydrate, and the terms sodium EDTA, EDTA disodium dihydrate, and NaEDTA are used interchangeably throughout. Used throughout the experiments calcium EDTA is calcium EDTA disodium, and the terms calcium EDTA, calcium EDTA disodium, and CaEDTA are used interchangeably throughout. Formation of 2,2′bis methylnaltrexone was assessed at room temperature as well as at 40° C. Addition of either sodium or calcium EDTA solution was effective at inhibiting formation of the 2,2′bis methylnaltrexone degradant.
We have found Ca^2+ chelating agent provides additional inhibition of formation of a 7-dihydroxy-methylnaltrexone degradant as compared to Na^2+ chelating agent. Methylnaltrexone solutions were prepared in 0.9% NaCl, in the presence of iron and various concentrations of sodium EDTA and calcium EDTA. Formation of 7-dihydroxy-methylnaltrexone was assessed at room temperature as well as at 40° C.

Row | Structure (SMILES) | opioid activity [1] | inhibition of formation of 2′,2′ bis methylnaltrexone degradant [2] | inhibition of formation of 7-dihydroxy-methylnaltrexone degradant [2] | inhibition of formation of the 0.79 degradant ([2]; room temperature and 40° C.)
1 | C[N+]1(CC2CC2)CCC23c4c5ccc(O)c4OC2C(=O)CCC3(O)C1C5 (single isomer, unassigned) [R—N isomer of methylnaltrexone] | opioid antagonist |  |  | 
2 | C[N@@+]1(CC2CC2)CC[C@]23c4c5ccc(O)c4OC2C(=O)CCC3(O)C1C5 (single isomer, unassigned) [S—N isomer of methylnaltrexone] | opioid agonist |  |  | 
3 | O=C([O-])CN(CCN(CC(=O)[O-])CC(=O)[O-])CC(=O)[O-].[Ca+2].[Na+].[Na+] [calcium EDTA, calcium EDTA disodium] |  | effective inhibitors | effective inhibitor | not effective
4 | O.O.O=C([O-])CN(CCN(CC(=O)[O-])CC(=O)O)CC(=O)O.[Na+].[Na+] [sodium EDTA, EDTA disodium dihydrate] |  | effective inhibitors | may even increase levels | 
